Source: patent US10385050B2, “Indolin-2-one and 1,3-dihydro-pyrrolo[3,2-c]pyridin-2-one derivatives” (Hoffmann-La Roche Inc., priority 2014, dated 2019)

Tested on: L-687,414-induced hyperlocomotion
Experiment: Reversal of L-687,414-induced hyperlocomotion (Digiscan locomotor activity)
Format: in vivo, mouse
Conditions: for Inhibition, ip / inhibition in vivo at 30 mg/kg: dose ip 30 mg/kg at the same time as s.c. 50 mg/kg L-687,414, horizontal activity over 30 min; for ID50 po: dose producing 50% inhibition of L-687,414-induced hyperlocomotion, p.o. 15 min before s.c. 50 mg/kg L-687,414, doses 1-3-10 (Expl. 2: 3-10-30) mg/kg; for inhibition in vivo at 30 mg/kg: Mus musculus, 0.5 h
Source text: The authors described that hyperlocomotion induced by L-687,414 was inhibited by a series of known antipsychotic drugs. […] These findings predict antipsychotic activity for the present compounds, making them useful for the treatment of positive (psychosis) and negative symptoms of schizophrenia, substance abuse, alcohol and drug addiction, obsessive-compulsive disorders, cognitive impairment, bipolar disorders, mood disorders, major depression, resistant depression, anxiety disorders, Alzheimer's disease, autism, Parkinson's disease, chronic pain, borderline personality disorder, sleep disturbances, chronic fatigue syndrome, stiffness, antiinflammatory effects in arthritis and balance problems.
The described compounds of formula I reduce L-687,414-induced hyperlocomotion. This was assessed by using a computerized Digiscan 16 Animal Activity Monitoring System (Omnitech Electronics, Columbus, Ohio) to quantify locomotor activity. Animals were kept under a 12 h light/dark cycle and experiments were performed during the light period. Each activity monitoring chamber consisted of a Plexiglas box (41×41×28 cm; W×L×H) with sawdust bedding on the floor surrounded by invisible horizontal and vertical infrared sensor beams. The test boxes were divided by a Plexiglas cross providing each mouse with 20×20 cm of moving space. Cages were connected to a Digiscan Analyzer linked to a computer that constantly collected the beam status information. Records of photocell beam interruptions for individual animals were taken every 5 min over the duration of the experimental session and the sum of the first 6 periods was used as the final parameter. Compounds were administered either p.o. 15 min before a s.c. injection of 50 mg/kg of L-687,414, or i.p. at the same time as a s.c. injection of 50 mg/kg of L-687,414. Mice were then transferred from their home cage to the recording chambers for a 15-min habituation phase allowing free exploration of the new environment. Horizontal activity was then recorded for a 30-min time period. The % inhibition of L-687,414-induced hyperlocomotion was calculated according to the equation: ((Veh+L-687,414 horizontal activity−drug+L-687,414 horizontal activity)/Veh+L−687,414 horizontal activity)×100
ID50 values, defined as doses of each compound producing 50% inhibition of L-687,414-induced hyperlocomotion, were calculated by linear regression analysis of a dose-response data using an Excel-based computer-fitting program.
As data was not presupposed to be normally distributed, groups treated with test compounds were statistically compared with the control (vehicle-treated) group using one-tailed Mann Whitney U tests. In statistics, the Mann-Whitney U test (also called the Mann-Whitney-Wilcoxon (MWW) or Wilcoxon rank-sum test) is a non-parametric statistical hypothesis test for assessing whether one of two samples of independent observations tends to have larger values than the other. It is one of the most well-known non-parametric significance tests. […] P values given in table 1 are one-tailed since only decreases in locomotion were expected and tested for (Mann, H. B., Whitney, D. R. (1947), “On a Test of Whether one of Two Random Variables is Stochastically Larger than the Other”, Annals of Mathematical Statistics, 18 (1), 50-60).

| Compound | inhibition in vivo at 30 mg/kg | other results |
| --- | --- | --- |
| 1,3,3-Trimethyl-6-(3-pyridin-4-yl-isoxazol-5-yl)-1,3-dihydro-indol-2-one [Example 42] |  | Inhibition, ip: 58.4% |
| 1,3,3-Trimethyl-6-(4-(pyridin-3-yl)-1H-imidazol-1-yl)indolin-2-one [Example 29] |  | Inhibition, ip: 80.3% |
| 1-Cyclopropyl-3,3-dimethyl-6-(2-(2-methylpyridin-4-yl)oxazol-5-yl)indolin-2-one [Example 12] |  | Inhibition, ip: 49.1% |
| 3,3-Dimethyl-6-[1-(2-methyl-4-pyridyl)imidazol-4-yl]-1-(2-methylpyrimidin-5-yl)indolin-2-one [Example 113] |  | Inhibition, ip: 69.9% |
| 6-[1-(3-Fluoro-4-pyridyl)imidazol-4-yl]-3,3-dimethyl-1-(2-methylpyrimidin-5-yl)indolin-2-one [Example 110] |  | Inhibition, ip: 85.4% |
| CN1C(=O)C(C)(C)c2ccc(-c3ncc(-c4ccccc4)[nH]3)cc21 [Example 2, 1,3,3-Trimethyl-6-(5-phenyl-1H-imidazol-2-yl)indolin-2-one] |  | ID50 po: 10.71 mg/kg |
| CN1C(=O)C(C)(C)c2ccc(-c3cnc(-c4ccncc4)[nH]3)cc21 [Example 3, 1,3,3-Trimethyl-6-(2-(pyridin-4-yl)-1H-imidazol-5-yl)indolin-2-one] | 58.9% |  |
| CN1C(=O)C(C)(C)c2ccc(-c3cnc(-c4cccnc4)o3)cc21 [Example 7, 1,3,3-Trimethyl-6-(2-(pyridin-3-yl)oxazol-5-yl)indolin-2-one] | 83.9% |  |
| CC1(C)C(=O)N(C2CC2)c2cc(-c3cnc(-c4cccnc4)o3)ccc21 [Example 8, 1-Cyclopropyl-3,3-dimethyl-6-(2-(pyridin-3-yl)oxazol-5-yl)indolin-2-one] | 80.5% |  |
| CC1(C)C(=O)N(C2CC2)c2cc(-c3cnc(-c4ccncc4)o3)ccc21 [Example 10, 1-Cyclopropyl-3,3-dimethyl-6-(2-(pyridin-4-yl)oxazol-5-yl)indolin-2-one] | 78.8% |  |
| CC1(C)C(=O)N(C2COC2)c2cc(-c3nnc(-c4ccncc4)o3)ccc21 [Example 11, 3,3-Dimethyl-1-(oxetan-3-yl)-6-(5-(pyridin-4-yl)-1,3,4-oxadiazol-2-yl)indolin-2-one] | 80.9% |  |
| Cc1cc(-c2cnc(-c3ccc4c(c3)N(C3CC3)C(=O)C4(C)C)o2)ccn1 [Example 19, 1-Cyclopropyl-3,3-dimethyl-6-(5-(2-methylpyridin-4-yl)oxazol-2-yl)indolin-2-one] | 55.9% |  |
| CN1C(=O)C(C)(C)c2ccc(-n3cnc(-c4ccncc4)c3)cc21 [Example 20, 1,3,3-Trimethyl-6-(4-(pyridin-4-yl)-1H-imidazol-1-yl)indolin-2-one] | 64.4% |  |
| Cc1cc(-c2ncc(-c3ccc4c(c3)N(C)C(=O)C4(C)C)o2)ccn1 [Example 22, 1,3,3-Trimethyl-6-(2-(2-methylpyridin-4-yl)oxazol-5-yl)indolin-2-one] | 55.9% |  |
| Cc1ccc(-c2ncc(-c3ccc4c(c3)N(C3CC3)C(=O)C4(C)C)o2)cn1 [Example 33, 1-Cyclopropyl-3,3-dimethyl-6-(2-(6-methylpyridin-3-yl)oxazol-5-yl)indolin-2-one] |  | ID50 po: 3.36 mg/kg |
| CN1C(=O)C(C)(C)c2ccc(-n3cc(-c4cccnc4)cn3)cc21 [Example 41, 1,3,3-Trimethyl-6-(4-(pyridin-3-yl)-1H-pyrazol-1-yl)indolin-2-one] | 50.3% |  |
| CC1(C)C(=O)N(C2COC2)c2cc(-n3cc(-c4cccnc4)cn3)ccc21 [Example 43, 3,3-Dimethyl-1-(oxetan-3-yl)-6-(4-(pyridin-3-yl)-1H-pyrazol-1-yl)indolin-2-one] | 47.3% |  |

| Compound | inhibition in vivo at 30 mg/kg | other results |
| --- | --- | --- |
| CN1C(=O)C(C)(C)c2ccc(-c3coc(-c4cccnc4)n3)cc21 [Example 44, 1,3,3-Trimethyl-6-(2-(pyridin-3-yl)oxazol-4-yl)indolin-2-one] | 52.1% |  |
| Cc1cc(-c2nnc(-c3ccc4c(c3)N(C3COC3)C(=O)C4(C)C)o2)ccn1 [Example 49, 3,3-Dimethyl-6-(5-(2-methylpyridin-4-yl)-1,3,4-oxadiazol-2-yl)-1-(oxetan-3-yl)indolin-2-one] |  | ID50 po: 5.02 mg/kg |
| CN1C(=O)C(C)(C)c2ccc(-c3cnn(-c4cccnc4)c3)cc21 [Example 50, 1,3,3-Trimethyl-6-(1-(pyridin-3-yl)-1H-pyrazol-4-yl)indolin-2-one] | 44% |  |
| CC1(C)C(=O)Nc2cc(-n3cc(-c4cccnc4)cn3)ccc21 [Example 51, 3,3-Dimethyl-6-(4-(pyridin-3-yl)-1H-pyrazol-1-yl)indolin-2-one] | 61% |  |
| CC1(C)C(=O)N(C2CC2)c2cc(-n3cc(-c4cccnc4)cn3)ccc21 [Example 52, 1-Cyclopropyl-3,3-dimethyl-6-(4-(pyridin-3-yl)-1H-pyrazol-1-yl)indolin-2-one] | 82.1% |  |
| Cc1cc(-c2cnn(-c3ccc4c(c3)N(C)C(=O)C4(C)C)c2)ccn1 [Example 54, 1,3,3-Trimethyl-6-(4-(2-methylpyridin-4-yl)-1H-pyrazol-1-yl)indolin-2-one] | 41.6% |  |
| Cc1cc(-c2cnn(-c3ccc4c(c3)N(C3CC3)C(=O)C4(C)C)c2)ccn1 [Example 55, 1-Cyclopropyl-3,3-dimethyl-6-(4-(2-methylpyridin-4-yl)-1H-pyrazol-1-yl)indolin-2-one] | 42.7% |  |
| CN1C(=O)C(C)(C)c2ccc(-n3cc(-c4ccncc4)nn3)cc21 [Example 57, 1,3,3-Trimethyl-6-(4-(pyridin-4-yl)-1H-1,2,3-triazol-1-yl)indolin-2-one] | 89.2% |  |
| COc1cnccc1-c1ncc(-c2ccc3c(c2)NC(=O)C3(C)C)o1 [Example 63, 6-(2-(3-Methoxypyridin-4-yl)oxazol-5-yl)-3,3-dimethylindolin-2-one] | 75% |  |
| Cc1ccc(-c2cnn(-c3ccc4c(c3)N(C3CC3)C(=O)C4(C)C)c2)cn1 [Example 69, 1-Cyclopropyl-3,3-dimethyl-6-(4-(6-methylpyridin-3-yl)-1H-pyrazol-1-yl)indolin-2-one] | 53.3% |  |
| CN1C(=O)C(C)(C)c2ccc(-c3cn(-c4ccncc4F)cn3)cc21 [Example 73, 6-(1-(3-Fluoropyridin-4-yl)-1H-imidazol-4-yl)-1,3,3-trimethylindolin-2-one] |  | ID50 po: 2.97 mg/kg |
| Cc1cc(-n2cnc(-c3ccc4c(c3)N(C3CC3)C(=O)C4(C)C)c2)ccn1 [Example 74, 1-Cyclopropyl-3,3-dimethyl-6-(1-(2-methylpyridin-4-yl)-1H-imidazol-4-yl)indolin-2-one] | 71.4% |  |
| CC1(C)C(=O)N(C2CC2)c2cc(-c3cn(-c4ccncc4F)cn3)ccc21 [Example 76, 1-Cyclopropyl-6-(1-(3-fluoropyridin-4-yl)-1H-imidazol-4-yl)-3,3-dimethylindolin-2-one] |  | ID50 po: <1 mg/kg |
| Cc1nc(-c2ccc3c(c2)N(C)C(=O)C3(C)C)cn1-c1ccncc1 [Example 77, 1,3,3-Trimethyl-6-(2-methyl-1-(pyridin-4-yl)-1H-imidazol-4-yl)indolin-2-one] | 89.4% |  |
| Cc1ccc(-c2cc(-c3ccc4c(c3)N(C)C(=O)C4(C)C)n[nH]2)cn1 [Example 80, 1,3,3-Trimethyl-6-(5-(6-methylpyridin-3-yl)-1H-pyrazol-3-yl)indolin-2-one] | 62.6% |  |
| Cc1cnccc1-n1cnc(-c2ccc3c(c2)N(C)C(=O)C3(C)C)c1 [Example 88, 1,3,3-Trimethyl-6-(1-(3-methylpyridin-4-yl)-1H-imidazol-4-yl)indolin-2-one] | 93.1% |  |
| Cc1cnccc1-n1cnc(-c2ccc3c(c2)N(C2CC2)C(=O)C3(C)C)c1 [Example 89, 1-Cyclopropyl-3,3-dimethyl-6-(1-(3-methylpyridin-4-yl)-1H-imidazol-4-yl)indolin-2-one] | 58.5% |  |
